{"source": "patent US11524966B1", "about": "(Valo Early Discovery, Inc., priority 2017, dated 2022)"}
{"biological_target": "T1, USP28 (USP28-5(1-1077)-TEV-6*His; LifeSensors) (Homo sapiens, UniProt Q96RU2)", "T1 construct": "construct USP28 (USP28-5(1-1077)-TEV-6*His; LifeSensors); TEV cleavage site (C); 6xHis (C); purchased LifeSensors", "T1 sequence (Q96RU2 1-1077)": "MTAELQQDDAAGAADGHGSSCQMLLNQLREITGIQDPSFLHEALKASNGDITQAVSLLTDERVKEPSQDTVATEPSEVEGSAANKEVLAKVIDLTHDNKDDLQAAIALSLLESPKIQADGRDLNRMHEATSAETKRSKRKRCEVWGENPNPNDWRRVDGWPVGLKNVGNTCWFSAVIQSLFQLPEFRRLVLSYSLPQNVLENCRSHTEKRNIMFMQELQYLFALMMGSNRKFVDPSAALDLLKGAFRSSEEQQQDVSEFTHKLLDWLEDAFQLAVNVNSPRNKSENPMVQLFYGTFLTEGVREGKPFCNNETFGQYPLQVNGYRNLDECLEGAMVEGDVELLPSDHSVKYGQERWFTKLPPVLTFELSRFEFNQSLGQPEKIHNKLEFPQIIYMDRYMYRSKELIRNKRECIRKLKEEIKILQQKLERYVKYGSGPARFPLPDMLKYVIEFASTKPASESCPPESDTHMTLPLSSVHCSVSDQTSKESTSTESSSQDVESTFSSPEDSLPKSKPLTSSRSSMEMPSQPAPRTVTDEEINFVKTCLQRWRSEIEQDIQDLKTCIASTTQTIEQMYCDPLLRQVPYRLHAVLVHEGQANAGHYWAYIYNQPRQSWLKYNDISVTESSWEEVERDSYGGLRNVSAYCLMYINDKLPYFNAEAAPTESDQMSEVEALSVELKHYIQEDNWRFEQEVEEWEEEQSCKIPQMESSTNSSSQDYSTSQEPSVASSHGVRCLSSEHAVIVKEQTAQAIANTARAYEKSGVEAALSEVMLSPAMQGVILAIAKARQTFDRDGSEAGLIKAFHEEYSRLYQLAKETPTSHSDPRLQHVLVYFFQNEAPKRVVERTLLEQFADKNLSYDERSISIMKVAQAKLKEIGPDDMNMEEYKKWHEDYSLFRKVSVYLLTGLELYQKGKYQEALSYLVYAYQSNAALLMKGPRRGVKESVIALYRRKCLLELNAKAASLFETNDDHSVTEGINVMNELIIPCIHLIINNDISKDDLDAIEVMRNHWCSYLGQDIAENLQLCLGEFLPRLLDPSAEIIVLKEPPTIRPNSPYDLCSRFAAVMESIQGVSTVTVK", "experiment": "Ubiquitin-Rhodamine 110 Assay for USP28 Activity, Example A-1(b)", "type": "biochemical", "conditions": "Ub-Rh110 assay, Example A-1(b)", "in_short": "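Single-point screening used 10 μM compound with 90 min room-temperature incubation; follow-up dose-responses (25 μM top, 3-fold) used 75 pM USP28 1-1077 construct, 30 min compound preincubation, 25 nM Ub-Rh110, 20 min reaction, citric acid quench. Rh110 fluorescence normalised to no-enzyme and DMSO controls; IC50 from 4-parameter logistic fit.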"}
{"compound": "Cc1cnc2c(N)c(C(=O)N[C@@H]3CCc4cc(N5CCNCC5)c(C)cc4C3)sc2n1", "note": "(single isomer, unassigned) [Example 2-35]", "USP28 A-1(b) IC50 range": "+ (>2 μM)"}
{"compound": "Cc1cnc2c(N)c(C(=O)N[C@H]3CCc4c(ccc(N5CCNCC5)c4C)C3)sc2n1", "note": "(single isomer, unassigned) [Example 2-36]", "USP28 A-1(b) IC50 range": "+ (>2 μM)"}
{"compound": "Cc1cnc2c(N)c(C(=O)N[C@@H]3CCc4c(ccc(N5CCNCC5)c4C)C3)sc2n1", "note": "(single isomer, unassigned) [Example 2-37]", "USP28 A-1(b) IC50 range": "+++ (0.05-0.2 μM)"}
{"compound": "Cc1ccc2c(N)c(C(=O)N[C@H]3COc4cc(N5CCC[C@@](N)(C(F)(F)F)C5)ccc4C3)sc2n1", "note": "(single isomer, unassigned) [Example 3-3]", "USP28 A-1(b) IC50 range": "++++ (0.001-0.05 μM)"}
{"compound": "Cc1ccc2c(N)c(C(=O)N[C@H]3COc4cc(N5CCC[C@](N)(C(F)(F)F)C5)ccc4C3)sc2n1", "note": "(single isomer, unassigned) [Example 3-4]", "USP28 A-1(b) IC50 range": "+++ (0.05-0.2 μM)"}
{"compound": "Cc1nc2sc(C(=O)N[C@H]3COc4cc(N5CC6CCC(C5)N6)ccc4C3)c(N)c2s1", "note": "[Example 1-23, N-((3R)-7-(3,8-diazabicyclo[3.2.1]octan-3-yl)chroman-3-yl)-6-amino-2-methylthieno[2,3-d]thiazole-5-carboxamide]", "USP28 A-1(b) IC50 range": "++ (0.2-2 μM)"}
{"compound": "Cc1nc2sc(C(=O)N[C@@H]3COc4cc(N5CC6CCC(C5)N6)ccc4C3)c(N)c2s1", "note": "[Example 1-24, N-((3S)-7-(3,8-diazabicyclo[3.2.1]octan-3-yl)chroman-3-yl)-6-amino-2-methylthieno[2,3-d]thiazole-5-carboxamide]", "USP28 A-1(b) IC50 range": "+ (>2 μM)"}
{"compound": "Cc1nc2sc(C(=O)N[C@H]3COc4cc(N5CCNCC5)ccc4C3)c(N)c2s1", "note": "[Example 1-25, (R)-6-amino-2-methyl-N-(7-(piperazin-1-yl)chroman-3-yl)thieno[2,3-d]thiazole-5-carboxamide]", "USP28 A-1(b) IC50 range": "++ (0.2-2 μM)"}
{"compound": "Cc1nc2sc(C(=O)N[C@@H]3COc4cc(N5CCNCC5)ccc4C3)c(N)c2s1", "note": "[Example 1-26, (S)-6-amino-2-methyl-N-(7-(piperazin-1-yl)chroman-3-yl)thieno[2,3-d]thiazole-5-carboxamide]", "USP28 A-1(b) IC50 range": "+ (>2 μM)"}
{"compound": "Cc1ccc2c(N)c(C(=O)N[C@H]3COc4c(ccc(N5CCNCC5)c4F)C3)sc2n1", "note": "[Example 1-33, (R)-3-amino-N-(8-fluoro-7-(piperazin-1-yl)chroman-3-yl)-6-methylthieno[2,3-b]pyridine-2-carboxamide]", "USP28 A-1(b) IC50 range": "+++ (0.05-0.2 μM)"}
{"compound": "Cc1ccc2c(N)c(C(=O)N[C@@H]3COc4c(ccc(N5CCNCC5)c4F)C3)sc2n1", "note": "[Example 1-34, (S)-3-amino-N-(8-fluoro-7-(piperazin-1-yl)chroman-3-yl)-6-methylthieno[2,3-b]pyridine-2-carboxamide]", "USP28 A-1(b) IC50 range": "+ (>2 μM)"}
{"compound": "Cc1ccc2c(N)c(C(=O)N[C@H]3COc4cc(N5CCNCC5)c(F)cc4C3)sc2n1", "note": "[Example 1-35, (R)-3-amino-N-(6-fluoro-7-(piperazin-1-yl)chroman-3-yl)-6-methylthieno[2,3-b]pyridine-2-carboxamide]", "USP28 A-1(b) IC50 range": "+++ (0.05-0.2 μM)"}
{"compound": "Cc1ccc2c(N)c(C(=O)N[C@@H]3COc4cc(N5CCNCC5)c(F)cc4C3)sc2n1", "note": "[Example 1-36, (S)-3-amino-N-(6-fluoro-7-(piperazin-1-yl)chroman-3-yl)-6-methylthieno[2,3-b]pyridine-2-carboxamide]", "USP28 A-1(b) IC50 range": "+ (>2 μM)"}
{"compound": "Cc1ccc2c(N)c(C(=O)N[C@H]3COc4cc(N5CC6CNCC(C5)C6(F)F)ccc4C3)sc2n1", "note": "[Example 2-1, 3-Amino-N-((3R)-7-(9,9-difluoro-3,7-diazabicyclo[3.3.1]nonan-3-yl)chroman-3-yl)-6-methylthieno[2,3-b]pyridine-2-carboxamide]", "USP28 A-1(b) IC50 range": "++++ (0.001-0.05 μM)"}
{"compound": "Cc1ccc2c(N)c(C(=O)N[C@H]3COc4cc(N5CC6CC(C5)N6)ccc4C3)sc2n1", "note": "[Example 2-2, N-((3R)-7-(3,6-diazabicyclo[3.1.1]heptan-3-yl)chroman-3-yl)-3-amino-6-methylthieno[2,3-b]pyridine-2-carboxamide]", "USP28 A-1(b) IC50 range": "+++ (0.05-0.2 μM)"}
{"compound": "Cc1ccc2c(N)c(C(=O)N[C@@H]3COc4cc(N5CC6CC(C5)N6)ccc4C3)sc2n1", "note": "[Example 2-3, N-((3S)-7-(3,6-diazabicyclo[3.1.1]heptan-3-yl)chroman-3-yl)-3-amino-6-methylthieno[2,3-b]pyridine-2-carboxamide]", "USP28 A-1(b) IC50 range": "+ (>2 μM)"}
{"compound": "Cc1ccc2c(N)c(C(=O)N[C@H]3COc4cc(N5CCNC[C@@H]5C)ccc4C3)sc2n1", "note": "[Example 2-4, 3-amino-6-methyl-N-((R)-7-((S)-2-methylpiperazin-1-yl)chroman-3-yl)thieno[2,3-b]pyridine-2-carboxamide]", "USP28 A-1(b) IC50 range": "++++ (0.001-0.05 μM)"}
{"compound": "Cc1ccc2c(N)c(C(=O)N[C@H]3COc4cc(N5CCNC[C@H]5C)ccc4C3)sc2n1", "note": "[Example 2-5, 3-amino-6-methyl-N-((R)-7-((R)-2-methylpiperazin-1-yl)chroman-3-yl)thieno[2,3-b]pyridine-2-carboxamide]", "USP28 A-1(b) IC50 range": "++++ (0.001-0.05 μM)"}
{"compound": "Cc1ccc2c(N)c(C(=O)N[C@H]3COc4cc(N5C6CCC5CNC6)ccc4C3)sc2n1", "note": "[Example 2-6, N-((3R)-7-(3,8-diazabicyclo[3.2.1]octan-8-yl)chroman-3-yl)-3-amino-6-methylthieno[2,3-b]pyridine-2-carboxamide]", "USP28 A-1(b) IC50 range": "+++ (0.05-0.2 μM)"}
{"compound": "Cc1ccc2c(N)c(C(=O)N[C@H]3COc4cc(N5CCCC56CNC6)ccc4C3)sc2n1", "note": "[Example 2-7, (R)-N-(7-(2,5-diazaspiro[3.4]octan-5-yl)chroman-3-yl)-3-amino-6-methylthieno[2,3-b]pyridine-2-carboxamide]", "USP28 A-1(b) IC50 range": "+++ (0.05-0.2 μM)"}
{"compound": "Cc1ccc2c(N)c(C(=O)N[C@H]3COc4cc(N5CCN[C@@H](C)C5)ccc4C3)sc2n1", "note": "[Example 2-8, 3-amino-6-methyl-N-((R)-7-((S)-3-methylpiperazin-1-yl)chroman-3-yl)thieno[2,3-b]pyridine-2-carboxamide]", "USP28 A-1(b) IC50 range": "++ (0.2-2 μM)"}
{"compound": "Cc1ccc2c(N)c(C(=O)N[C@H]3COc4cc(N5CCN[C@H](C)C5)ccc4C3)sc2n1", "note": "[Example 2-9, 3-amino-6-methyl-N-((R)-7-((R)-3-methylpiperazin-1-yl)chroman-3-yl)thieno[2,3-b]pyridine-2-carboxamide]", "USP28 A-1(b) IC50 range": "++ (0.2-2 μM)"}
{"compound": "Cc1ccc2c(N)c(C(=O)N[C@H]3COc4cc(N5CCNCC56COC6)ccc4C3)sc2n1", "note": "[Example 2-10]", "USP28 A-1(b) IC50 range": "+++ (0.05-0.2 μM)"}
{"compound": "Cc1cnc2c(N)c(C(=O)N[C@H]3COc4cc(N5CC6CC(C5)N6)ccc4C3)sc2n1", "note": "[Example 2-11, N-((3R)-7-(3,6-diazabicyclo[3.1.1]heptan-3-yl)chroman-3-yl)-7-amino-3-methylthieno[2,3-b]pyrazine-6-carboxamide]", "USP28 A-1(b) IC50 range": "++ (0.2-2 μM)"}
{"compound": "Cc1cnc2c(N)c(C(=O)N[C@H]3COc4cc(N5CC6COCC(C5)N6)ccc4C3)sc2n1", "note": "[Example 2-12, N-((3R)-7-(3-oxa-7,9-diazabicyclo[3.3.1]nonan-7-yl)chroman-3-yl)-7-amino-3-methylthieno[2,3-b]pyrazine-6-carboxamide]", "USP28 A-1(b) IC50 range": "++ (0.2-2 μM)"}
{"compound": "Cc1cnc2c(N)c(C(=O)N[C@H]3COc4cc(N5CC6CNCC(C5)O6)ccc4C3)sc2n1", "note": "[Example 2-13, N-((3R)-7-(9-oxa-3,7-diazabicyclo[3.3.1]nonan-3-yl)chroman-3-yl)-7-amino-3-methylthieno[2,3-b]pyrazine-6-carboxamide]", "USP28 A-1(b) IC50 range": "++ (0.2-2 μM)"}
{"compound": "COc1nc2sc(C(=O)N[C@H]3COc4cc(N5CCNCC5)ccc4C3)c(N)c2cc1F", "note": "[Example 2-16, (R)-3-amino-5-fluoro-6-methoxy-N-(7-(piperazin-1-yl)chroman-3-yl)thieno[2,3-b]pyridine-2-carboxamide]", "USP28 A-1(b) IC50 range": "++ (0.2-2 μM)"}
{"compound": "Cc1cc(C)c2c(N)c(C(=O)N[C@H]3COc4cc(N5CCNCC5)ccc4C3)sc2n1", "note": "[Example 2-17, (R)-3-amino-4,6-dimethyl-N-(7-(piperazin-1-yl)chroman-3-yl)thieno[2,3-b]pyridine-2-carboxamide]", "USP28 A-1(b) IC50 range": "+++ (0.05-0.2 μM)"}
